Test results reported in EP0565897B1, “Argatroban preparations for ophthalmic use” (priority 1992, dated 1993).

Assays:
[1] = tested on: fibrin formation in the rabbit anterior chamber; experiment: Fibrin formation in the anterior chamber caused by laser irradiation (slit lamp microscope); type: in vivo, pigmented rabbits; details: 0.1 mg/kg/minute intravenously, 30 minutes after the irradiation
Method: In this example, a model of fibrin formation in the rabbit anterior chamber caused by laser irradiation was used as a measure for testing the action of argatroban. In this model, the seriousness of inflammation and amount of fibrin are determined proportional to the total energy of the laser irradiation. The amount of fibrin can be controled to the desired value by altering total energy of laser irradiation.
(§1) Matured pigmented rabbits (Dutch rabbits of 2 kg body weight) were irradiated with laser at the iris using an argon laser equipment (product of NIDEK). In one group of the rabbits on the eyes, 8 irradiation points at the same interval on a circle line were made under the conditions of coagulation size of 50 micrometer, output of 1.0 Watt and irradiation time of 0.1 second (condition A). In other group of the rabbits, 8 irradiation points similar to those on the eyes were made under the conditions of coagulation size of 200 micrometer, output of 1.0 Watt and irradiation time of 0.2 second (condition B).
From 30 minutes prior to and until 30 minutes after irradiations, 0.1 mg/kg/minute of argatroban was administered intravenously from ear vein. Control group received only laser irradiation. Positive control group received 1000 U/kg of heparin intravenously 30 minutes prior to laser irradiation. […]
The fibrin formation was recorded photographically using a slit lamp microscope.

[2] = tested on: flare increase in the anterior chamber; experiment: Anterior chamber flare after argon laser irradiation (flare cell meter); type: in vivo, pigmented rabbits; details: condition B
Description: as §1
From 30 minutes prior to and until 30 minutes after irradiations, 0.1 mg/kg/minute of argatroban was administered intravenously from ear vein. Control group received only laser irradiation. Positive control group received 1000 U/kg of heparin intravenously 30 minutes prior to laser irradiation.
For argatroban eye drop, right eyes of the rabbits received 5 mg/ml solution of argatroban, while left eyes were used as a control without application of argatroban.
Further, the laser irradiation of condition B was effected and then the anterior chamber flare values were estimated using the flare cell meter at 30 minutes and 60 minutes after the irradiation.
The flare cell meter measures turbidity in the anterior chamber as the photon count. […]

[3] = tested on: fibrin formation in the anterior chamber; experiment: Fibrin formation by administering self-plasma to the anterior chamber; type: in vivo, white rabbits; details: 150 microliter plasma and 50 microliter argatroban solution (10 mg/ml) injected to the anterior chamber; 24 hours after the administration
Method: Blood of matured white rabbits (2 kg in body weight) were taken and separated to give plasma. Two hundreds microliter of anterior chamber liquid was taken by conducting centesis into anterior chamber of the same rabbit. Then, 150 microliter of the plasma obained and 50 microliter of argatroban solution (10 mg/ml), 200 microliter in total, were injected to the anterior chamber from the same centesis portion. The control received 150 microliter of plasma and 50 microliter of physiological saline in the same manner at the anterior chamber. The fibrin formation in the anterior chamber 24 hours after the administration was observed and recorded.

[4] = LD50 (acute toxicity), mouse; details: in vivo
Description: (§2) In the following Table 2, the toxicological data of argatroban is shown.

[5] = LD50 (acute toxicity), rat; details: in vivo
Description: as §2

[6] = LD50 (acute toxicity), dog; type: in vivo; details: in vivo, iv, Male, i. v.
Description: as §2

dog = experiment: LD50 (acute toxicity), dog; type: in vivo; details: Female, i. v.
Description: as §2

CC1CNc2c(cccc2S(=O)(=O)N[C@@H](CCCNC(=N)N)C(=O)N2CC[C@@H](C)C[C@@H]2C(=O)O)C1.O (mixture of isomers) [argatroban, (2R,4R)-4-methyl-1-[N^2-((RS)-3-methyl-1,2,3,4-tetrahydro-8-quinolinesulfonyl)-L-arginyl]-2-piperidinecarboxylic acid hydrate]
fibrin formation ([1]; condition A): no fibrin formation was also observed | fibrin formation ([1]; condition B): no fibrin formation was also observed | photon count (/msec) ([2]; eye drop, solution of 5 mg/ml, 30 minutes after laser irradiation): 287.7 ± 99.2 (n=4) /msec | photon count (/msec) ([2]; eye drop, solution of 5 mg/ml, 60 minutes after laser irradiation): 341.2 ± 86.5 (n=4) /msec | photon count (/msec) ([2]; intravenous injection at 0.1 mg/kg/min, 30 minutes after laser irradiation): 417.7 ± 159.3 (n=4) /msec | photon count (/msec) ([2]; intravenous injection at 0.1 mg/kg/min, 60 minutes after laser irradiation): 356.9 ± 168.3 (n=4) /msec | fibrin formation [3]: No fibrin formation was observed | LD50 ([4]; ip, Female, i. p.): 640 mg/kg | LD50 ([4]; ip, Male, i. p.): 475 mg/kg | LD50 ([4]; iv, Female, i. v.): > 81 mg/kg | LD50 ([4]; iv, Male, i. v.): > 81 mg/kg | LD50 ([4]; po, Female, p. o.): > 15000 mg/kg | LD50 ([4]; po, Male, p. o.): > 15000 mg/kg | LD50 ([4]; sc, Female, subc.): 3900 mg/kg | LD50 ([4]; sc, Male, subc.): 3750 mg/kg | LD50 ([5]; ip, Female, i. p.): 409 mg/kg | LD50 ([5]; ip, Male, i. p.): 320 mg/kg | LD50 ([5]; iv, Female, i. v.): > 81 mg/kg | LD50 ([5]; iv, Male, i. v.): > 81 mg/kg | LD50 ([5]; po, Female, p. o.): > 15000 mg/kg | LD50 ([5]; po, Male, p. o.): > 15000 mg/kg | LD50 ([5]; sc, Female, subc.): 620 mg/kg | LD50 ([5]; sc, Male, subc.): 700 mg/kg | LD50 [6]: > 200 mg/kg | LD50 (dog): > 200 mg/kg
